Laboratory results published in article PMC5446775, “Interactions of 172 plant extracts with human organic anion transporter 1 (SLC22A6) and 3 (SLC22A8): a study on herb-drug interactions” (PeerJ, 2017).
Values joined by “and” are separate entries in the source; they are usually repeats but may differ in a detail not shown here. Identical values can stand only once.

Tests used:
hOAT1 = molecular target: T1, hOAT1 (Homo sapiens, UniProt Q4U2R8); test: Time course and uptake kinetics of 6-CF in HEK-OAT1 cells
T1 sequence (Q4U2R8 1-563): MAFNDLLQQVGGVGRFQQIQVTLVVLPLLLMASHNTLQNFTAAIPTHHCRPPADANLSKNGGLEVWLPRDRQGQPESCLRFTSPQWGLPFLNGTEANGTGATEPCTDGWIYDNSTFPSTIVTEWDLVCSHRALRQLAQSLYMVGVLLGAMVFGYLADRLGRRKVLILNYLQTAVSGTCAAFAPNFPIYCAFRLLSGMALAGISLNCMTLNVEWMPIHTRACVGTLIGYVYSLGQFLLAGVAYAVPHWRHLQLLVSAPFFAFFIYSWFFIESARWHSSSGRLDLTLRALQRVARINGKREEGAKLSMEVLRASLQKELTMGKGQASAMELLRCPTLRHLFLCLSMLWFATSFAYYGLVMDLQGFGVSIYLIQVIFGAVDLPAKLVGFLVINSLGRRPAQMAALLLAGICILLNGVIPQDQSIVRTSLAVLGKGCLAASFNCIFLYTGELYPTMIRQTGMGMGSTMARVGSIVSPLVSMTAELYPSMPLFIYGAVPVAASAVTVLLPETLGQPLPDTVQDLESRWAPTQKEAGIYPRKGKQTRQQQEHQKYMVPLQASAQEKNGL

HEK-EV cells = test: Time course of 6-CF uptake in HEK-EV cells; format: cell-based; parameters: unit not given beside the values
hOAT3 = molecular target: T2, hOAT3 (Homo sapiens, UniProt Q8TCC7); test: Time course and uptake kinetics of 6-CF in HEK-OAT3 cells
T2 sequence (Q8TCC7 1-542): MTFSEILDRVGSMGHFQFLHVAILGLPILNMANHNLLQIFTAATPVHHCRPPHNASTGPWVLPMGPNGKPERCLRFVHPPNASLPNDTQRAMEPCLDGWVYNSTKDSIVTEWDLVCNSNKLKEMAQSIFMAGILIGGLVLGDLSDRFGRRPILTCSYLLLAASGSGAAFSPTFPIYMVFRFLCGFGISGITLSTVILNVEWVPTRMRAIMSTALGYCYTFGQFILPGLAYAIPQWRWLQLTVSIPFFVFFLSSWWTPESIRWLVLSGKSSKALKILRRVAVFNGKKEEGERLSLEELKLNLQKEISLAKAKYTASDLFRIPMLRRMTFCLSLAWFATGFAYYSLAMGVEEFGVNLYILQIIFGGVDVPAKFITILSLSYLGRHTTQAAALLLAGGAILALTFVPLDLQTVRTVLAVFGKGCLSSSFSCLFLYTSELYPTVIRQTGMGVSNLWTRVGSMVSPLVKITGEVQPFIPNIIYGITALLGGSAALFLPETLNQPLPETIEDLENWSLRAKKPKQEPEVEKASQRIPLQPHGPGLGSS

[1] = substrate: O=C(O)c1ccc(C(=O)O)c(-c2c3ccc(=O)cc-3oc3cc(O)ccc23)c1; test: cells, lysate or membranes; conditions: pH 7.2
[2] = other: HEK-OAT1, 6-CF 0–500 μM, 4 min
[3] = other: HEK-OAT3, 6-CF 0–500 μM, 10 min

## O=C(O)c1ccc(C(=O)O)c(-c2c3ccc(=O)cc-3oc3cc(O)ccc23)c1 [6-CF, 6-Carboxyfluorescein]
hOAT1; HEK-OAT1, 6-CF 0.4882813 uM
  6-CF uptake, saturation curve (replicates): 7.173 and 7.446 and 6.987
hOAT1; HEK-OAT1, 6-CF 0.9765625 uM
  6-CF uptake, saturation curve (replicates): 12.8274 and 13.23 and 13
hOAT1; HEK-OAT1, 6-CF 1.953125 uM
  6-CF uptake, saturation curve (replicates): 27.87 and 28.3406 and 28.05
hOAT1; HEK-OAT1, 6-CF 3.90625 uM
  6-CF uptake, saturation curve (replicates): 46.16 and 53.71 and 47.47
hOAT1; HEK-OAT1, 6-CF 7.8125 uM
  6-CF uptake, saturation curve (replicates): 70.1 and 79.19 and 68.4603
hOAT1; HEK-OAT1, 6-CF 15.625 uM
  6-CF uptake, saturation curve (replicates): 99.74 and 104.681 and 93.41
hOAT1; HEK-OAT1, 6-CF 31.25 uM
  6-CF uptake, saturation curve (replicates): 121.9009 and 125.5377 and 115.7964
hOAT1; HEK-OAT1, 6-CF 62.5 uM
  6-CF uptake, saturation curve (replicates): 137.2491 and 143.8246 and 138.2214
hOAT1; HEK-OAT1, 6-CF 125 uM
  6-CF uptake, saturation curve (replicates): 148.3736 and 150.9828 and 144.0527
hOAT1; HEK-OAT1, 6-CF 250 uM
  6-CF uptake, saturation curve (replicates): 164.0673 and 159.2171 and 152.7382
hOAT1; HEK-OAT1, 6-CF 500 uM
  6-CF uptake, saturation curve (replicates): 180.965 and 184.434 and 169.8854
hOAT1; HEK-OAT1, 1 min
  6-CF uptake, time course (replicates): 103.0408 and 111.2811 and 116.9642
hOAT1; HEK-OAT1, 2 min
  6-CF uptake, time course (replicates): 184.2101 and 188.6327 and 203.3025
hOAT1; HEK-OAT1, 4 min
  6-CF uptake, time course (replicates): 263.4748 and 273.8167 and 274.8526
hOAT1; HEK-OAT1, 6 min
  6-CF uptake, time course (replicates): 366.3584 and 347.2089 and 351.4604
hOAT1; HEK-OAT1, 8 min
  6-CF uptake, time course (replicates): 433.3665 and 398.0952 and 430.7222
hOAT1; HEK-OAT1, 10 min
  6-CF uptake, time course (replicates): 468.8556 and 433.6342 and 503.1246
hOAT1; HEK-OAT1, 15 min
  6-CF uptake, time course (replicates): 515.439 and 498.8523
HEK-EV cells; EV (run with HEK-OAT3), 0 min
  6-CF uptake, time course (replicates): -0.296 and -0.1638 and -0.3041
HEK-EV cells; EV (run with HEK-OAT3), 1 min
  6-CF uptake, time course (replicates): 0.1864 and 0.1215 and 0.1926
HEK-EV cells; EV (run with HEK-OAT3), 3 min
  6-CF uptake, time course (replicates): 1.062 and 1.738 and 0.6624
HEK-EV cells; EV (run with HEK-OAT3), 5 min
  6-CF uptake, time course (replicates): 1.6 and 1.946 and 1.9
HEK-EV cells; EV (run with HEK-OAT3), 7 min
  6-CF uptake, time course (replicates): 3.081 and 4.38 and 4.257
HEK-EV cells; EV (run with HEK-OAT3), 10 min
  6-CF uptake, time course (replicates): 12.29 and 7.712 and 11.67
HEK-EV cells; EV (run with HEK-OAT3), 15 min
  6-CF uptake, time course (replicates): 22.75 and 12.81 and 21.0992
HEK-EV cells; EV (run with HEK-OAT3), 20 min
  6-CF uptake, time course (replicates): 40.6 and 70.13 and 42.87
HEK-EV cells; HEK-EV (run with HEK-OAT1), 1 min
  6-CF uptake, time course (replicates): 2.029 and 2.127 and 1.449
HEK-EV cells; HEK-EV (run with HEK-OAT1), 2 min
  6-CF uptake, time course (replicates): 3.517 and 2.496
HEK-EV cells; HEK-EV (run with HEK-OAT1), 4 min
  6-CF uptake, time course (replicates): 3.274 and 1.899
HEK-EV cells; HEK-EV (run with HEK-OAT1), 6 min
  6-CF uptake, time course (replicates): 2.9 and 5.179 and 2.231
HEK-EV cells; HEK-EV (run with HEK-OAT1), 8 min
  6-CF uptake, time course (replicates): 2.807 and 2.226 and 2.134
HEK-EV cells; HEK-EV (run with HEK-OAT1), 10 min
  6-CF uptake, time course (replicates): 6.849 and 3.392
HEK-EV cells; HEK-EV (run with HEK-OAT1), 15 min
  6-CF uptake, time course (replicates): 2.156 and 2.367 and 2.88
hOAT3; HEK-OAT3, 0 min
  6-CF uptake, time course (replicates): -0.2934 and -0.3139 and -0.3557
hOAT3; HEK-OAT3, 6-CF 0.4882813 uM
  6-CF uptake, saturation curve (replicates): 0.3918 and 0.3329 and 0.4388
hOAT3; HEK-OAT3, 6-CF 0.9765625 uM
  6-CF uptake, saturation curve (replicates): 0.698 and 0.5037 and 0.6877
hOAT3; HEK-OAT3, 6-CF 1.953125 uM
  6-CF uptake, saturation curve (replicates): 1.795 and 1.575 and 1.458
hOAT3; HEK-OAT3, 6-CF 3.90625 uM
  6-CF uptake, saturation curve (replicates): 4.35 and 4.472 and 4.585
hOAT3; HEK-OAT3, 6-CF 7.8125 uM
  6-CF uptake, saturation curve (replicates): 6.975 and 7.312 and 7.453
hOAT3; HEK-OAT3, 6-CF 15.625 uM
  6-CF uptake, saturation curve (replicates): 11.68 and 13.8 and 13.42
hOAT3; HEK-OAT3, 6-CF 31.25 uM
  6-CF uptake, saturation curve (replicates): 16.87 and 19.83 and 17.42
hOAT3; HEK-OAT3, 6-CF 62.5 uM
  6-CF uptake, saturation curve (replicates): 24.87 and 28.11 and 27.05
hOAT3; HEK-OAT3, 6-CF 125 uM
  6-CF uptake, saturation curve (replicates): 31.12 and 34.21 and 34.22
hOAT3; HEK-OAT3, 6-CF 250 uM
  6-CF uptake, saturation curve (replicates): 38.59 and 48.68 and 49.93
hOAT3; HEK-OAT3, 6-CF 500 uM
  6-CF uptake, saturation curve (replicates): 59.67 and 68.36 and 60.32
hOAT3; HEK-OAT3, 1 min
  6-CF uptake, time course (replicates): 15.96 and 14.63 and 12.89
hOAT3; HEK-OAT3, 3 min
  6-CF uptake, time course (replicates): 23.66 and 23.83 and 22.4238
hOAT3; HEK-OAT3, 5 min
  6-CF uptake, time course (replicates): 30.9 and 31.16 and 28.05
hOAT3; HEK-OAT3, 7 min
  6-CF uptake, time course (replicates): 39.99 and 36.19 and 41.91
hOAT3; HEK-OAT3, 10 min
  6-CF uptake, time course (replicates): 50.24 and 52.458 and 60.541
hOAT3; HEK-OAT3, 15 min
  6-CF uptake, time course (replicates): 52.72 and 56.05 and 66.23
hOAT3; HEK-OAT3, 20 min
  6-CF uptake, time course (replicates): 78 and 76.09 and 111.922

B1: hOAT1 (Homo sapiens) (protein)
chain: T1 sequence (Q4U2R8 1-563)
[1]; [2]
  Km: 10.86 ± 0.64 µM
  Vmax: 168.5 ± 2.27 pmol/mg protein/min

B2: hOAT3 (Homo sapiens) (protein)
chain: T2 sequence (Q8TCC7 1-542)
[1]; [3]
  Km: 112.9 ± 14.24 µM
  Vmax: 71.89 ± 3.42 pmol/mg protein/min
